We go through six molecules from ChEMBL document CHEMBL1128989, “-Methanesulfonyl-L-valine as a novel, unnatural amino acid surrogate for P2 in the design of HIV protease inhibitors” (Bioorg Med Chem Lett, 1996).

Experiment [1] can be described thus: Ratio of IC50/Ki was determined.
Experiment [2] deals with Human immunodeficiency virus 1. In words: Antiviral activity against PBMC infected with Human immunodeficiency virus type 1 NL4-3 isolate. The class given is functional.
The target of experiment [3] is Human immunodeficiency virus type 1 protease (Human immunodeficiency virus 1, UniProt Q72874). As to the kind of experiment: Inhibitory activity against P2 site in HIV protease.

On to `CC(C)(C)NC(=O)[C@@H]1C[C@@H]2CCCC[C@@H]2CN1C[C@@H](O)[C@H](Cc1ccccc1)NC(=O)[C@@H](NC(=O)OCc1ccccc1)C(C)(C)S(C)(=O)=O`, for which the Ratio in experiment [1] was 68. In addition, in experiment [2], the “CIC IC50” value was found to be 11 nM. Besides, affinity in experiment [3] was put at a Ki of 0.162 nM.
Consider `CC(C)(C)NC(=O)[C@@H]1C[C@@H]2CCCC[C@@H]2CN1C[C@@H](O)[C@H](Cc1ccccc1)NC(=O)[C@H](CC(N)=O)NC(=O)c1ccc2ccccc2n1`, for which the “CIC IC50” value in experiment [2] is reported as 23 nM.
Regarding `CC(C)(C)NC(=O)[C@@H]1C[C@@H]2CCCC[C@@H]2CN1C[C@@H](O)[C@H](Cc1ccccc1)NC(=O)[C@@H](NC(=O)c1ccc2ccccc2n1)C(C)(C)S(C)(=O)=O`, in experiment [1], the Ratio came to 28. For the same molecule, in experiment [2], the “CIC IC50” value turned out to be 4.9 nM. In experiment [3], the Ki worked out at 0.172 nM.
The like results for `CC(C)[C@H](NC(=O)c1ccc2ccccc2n1)C(=O)N[C@@H](Cc1ccccc1)[C@H](O)CN1C[C@H]2CCCC[C@H]2C[C@H]1C(=O)NC(C)(C)C` were, in that order, 98, 54 nM and 0.55 nM.
The like results for `CC(C)(C)NC(=O)[C@@H]1C[C@@H]2CCCC[C@@H]2CN1C[C@@H](O)[C@H](Cc1ccccc1)NC(=O)[C@H](CS(C)(=O)=O)NC(=O)c1ccc2ccccc2n1` were, in that order, 195, 22 nM and 0.113 nM.
Consider `CSC(C)(C)[C@H](NC(=O)c1ccc2ccccc2n1)C(=O)N[C@@H](Cc1ccccc1)[C@H](O)CN1C[C@H]2CCCC[C@H]2C[C@H]1C(=O)NC(C)(C)C`, for which the Ratio in experiment [1] amounted to 10. The “CIC IC50” value in experiment [2] amounted to 27 nM. The molecule also registered an inhibitory constant (Ki) in experiment [3] of 2.59 nM.
